In brackets after ≈: the same amount, converted by molar mass. Several values for one entry are separate records, joined by “and”; a condition that tells them apart may be missing. Equal entries are not always repeated. Where two headings read alike, the source gives them in different places. Marks after values point to notes of the source that are not given here.
What was measured:
[1] = tested on: Pseudomonas aeruginosa ATCC 27853 planktonic and biofilm bacteria; format: cell-based; conditions: LB+B1, 24 h exposure; for MIC: P. aeruginosa ATCC 27853; for MBEC: P. aeruginosa ATCC 27853 biofilm; for MBC: P. aeruginosa ATCC 27853 planktonic
[2] = tested on: Pseudomonas aeruginosa 15442; assay: Synergy matrix assay of polycide versus metals; format: cell-based
[3] = tested on: Pseudomonas aeruginosa ATCC 27853 cell populations; format: cell-based; conditions: for eradication of the biofilm cultures with extended exposure times: 27 hours exposure
[4] = tested on: Pseudomonas aeruginosa ATCC 27853 planktonic and biofilm cultures; format: cell-based; conditions: for Fold Tolerance (MBEC:MBC100) / MBEC / MBC100: MSVP; for MBEC: biofilm; for MIC: minimal media (MSVP), did not change with exposure time, mean ± SD of 28 trials; for MBC100: planktonic
[5] = tested on: Escherichia coli JM109 planktonic and biofilm bacteria; format: cell-based; conditions: LB+B1, 24 h exposure; for MIC: E. coli JM109; for MBEC: E. coli JM109 biofilm; for MBC: E. coli JM109 planktonic
[6] = tested on: Pseudomonas aeruginosa biofilms; assay: Metal and antibiotic combination assay; format: cell-based; conditions: for MBC / MBEC / MIC: median of 4 replicates
Experimental: Cells were grown to a mean density of 6.0×10^6 cfu/peg in LB+B1 media.
• 1. […] All data are median values based on 4 replicates.

[7] = tested on: Pseudomonas aeruginosa ATCC 27853 planktonic and biofilm cultures; format: cell-based; conditions: for MBEC: biofilm; for MBEC / MBC100 / Fold Tolerance (MBEC:MBC100): LB+B1; for MBC100: planktonic; for MIC: rich media (LB+B1), 4 replicates
[8] = tested on: Staphylococcus aureus ATCC 29213 planktonic and biofilm bacteria; format: cell-based; conditions: LB+B1, 24 h exposure; for MIC: S. aureus ATCC 29213; for MBEC: S. aureus ATCC 29213 biofilm; for MBC: S. aureus ATCC 29213 planktonic
[9] = tested on: P. aeruginosa biofilms; conditions: after 100 h of exposure; cited from earlier work
[10] = tested on: Pseudomonas aeruginosa ATCC 27853 planktonic and biofilm bacteria; assay: MBEC-HTP antibiotic susceptibility, P. aeruginosa; format: cell-based; conditions: CA-MHB, 24 h exposure
Experimental: (§1) Luria-Bertani medium was chosen for two reasons: 1) its established use in studies of metal resistance, and 2) because of the use of rich media in NCCLS testing protocols for antimicrobial resistance. Antibiotic resistance assays were performed using cation-adjusted Mueller-Hinton broth (CA-MHB, BDH Inc.) and subcultures, MBC and MBEC bacterial counts were performed using trypticase soy agar (TSA, Difco).
(§2) The present study used a novel high throughput method for screening biofilm susceptibility to metal cations and oxyanions: the MBEC device (MBEC Bioproducts Inc., Edmonton, Alberta, Canada, http://www.mbec.ca). The MBEC high throughput (MBEC-HTP) assay system consists of a shallow trough into which a plastic lid with 96 pegs fits. This peg lid also fits over a standard 96-well microtitre plate which can subsequently be used to setup serial dilutions of antimicrobial compounds. The bottom half of the MBEC device is a trough that has shallow channels that direct flow of an inoculated suspension over the pegs on the lid.
(§3) The inoculum was standardized to a 1.0 McFarland standard and verified by viable counts. The 1.0 McFarland standard inoculum was diluted 30-fold with growth media, which served as the growth suspension to inoculate the MBECJ device.
(§4) P. aeruginosa was incubated for 9 h, S. aureus for 24 h and E. coli for 24 h to generate approximately equivalent biofilms of 6.0×10^6 cfu/peg. Following the incubation period, growth of biofilm and planktonic cultures in the MBECJ device were discerned and verified by viable cell counts.
(§5) Chloramphenicol (Sigma) was prepared in 50% ethanol and treated identically to the other antibiotics. 10% ethanol was added to the growth controls for chloramphenicol assays. […] Starting with the working solutions, serial two-fold dilutions were made in the wells of a 96-well plate (the challenge plate), leaving the first well of each row as a sterility control and the second as a growth control (i.e. no antibiotic).

[11] = tested on: Escherichia coli JM109 planktonic and biofilm bacteria; assay: MBEC-HTP antibiotic susceptibility, E. coli; format: cell-based; conditions: CA-MHB, 24 h exposure
Experimental: as §1, §2, §3, §4, §5

[12] = antibiotic or heavy metal alone, LB+B1

O=S(=O)([O-])[O-].[Zn+2] [Zn^2+, zinc sulphate]
MIC [1]: 78 ± 31 mM
MBEC [1]: >125 mM
MBC [1]: >125 mM
synergistic effect on polycide activity [2]: did not appear to have any synergistic effect
biofilm killed ([3]; 2 h exposure, FIG. 2 Panel A): 90-99%
concentration tolerated by the surviving population ([3]; less than 0.1% survival of biofilm and planktonic cell populations): > 125 mM
Fold Tolerance (MBEC:MBC100) ([4]; exposure time 10 h): 2.3
Fold Tolerance (MBEC:MBC100) ([4]; exposure time 27 h): 1.0
MBEC ([4]; exposure time 2 to 8 h): >125 mM
MBEC ([4]; exposure time 10 h): ≧256 mM
MBEC ([4]; exposure time 27 h): 102 ± 47 mM
MIC [4]: 9.5 mM and 9.5 ± 3.3 mM
MBC100 ([4]; exposure time 2 to 8 h): >125 mM
MBC100 ([4]; exposure time 10 h): 109 ± 31 mM
MBC100 ([4]; exposure time 27 h): 102 ± 47 mM
MIC [5]: 2.2 ± 0.7 mM
MBEC [5]: 31 ± 0 mM
MBC [5]: 31 ± 0 mM
MBC [6, 12]: >8192 µg/mL
MBEC [6, 12]: >8192 µg/mL
MIC [6, 12]: 4096 µg/mL
MBEC ([7]; exposure time 2 or 27 h): >125 mM
MBC100 ([7]; exposure time 2 or 27 h): >125 mM
MIC [7]: 78 ± 31 mM
MIC [8]: 2.0 ± 0 mM
MBEC [8]: >125 mM
MBC [8]: >125 mM

O=C(O)c1cn(C2CC2)c2cc(N3CCNCC3)c(F)cc2c1=O [Ciprofloxacin]
log10 reduction in viable cell counts of biofilms [9]: < 1.5 log10
MBEC in the presence of Cu^2+, times less than the MBEC for the antibiotic alone ([6]; 200 μg/ml Cu^2+): at least 16 times
MBC ([6]; Pseudomonas aeruginosa, antibiotic in combination with 200 μg/ml Cu^2+, read-out: MBC): 8 µg/mL
MIC ([6]; Pseudomonas aeruginosa, antibiotic in combination with 200 μg/ml Cu^2+, read-out: MIC): 4 µg/mL
MBC ([6]; Pseudomonas aeruginosa, antibiotic in combination with 500 μg/ml Zn^2+, read-out: MBC): 32 µg/mL
MIC ([6]; Pseudomonas aeruginosa, antibiotic in combination with 500 μg/ml Zn^2+, read-out: MIC): 0.25 to 1 µg/mL
MBC ([6]; Pseudomonas aeruginosa, antibiotic or heavy metal alone, LB+B1, read-out: MBC): 8 µg/mL
MBEC ([6]; antibiotic in combination with 200 μg/ml Cu^2+): 16** μg/ml
MBEC ([6]; antibiotic in combination with 500 μg/ml Zn^2+): >64 µg/mL

O.O.O.O.O.O=S(=O)([O-])[O-].[Cu+2] [Cu^2+, cupric sulphate]
MIC [1]: 12 ± 5 mM
MBEC [1]: 14 ± 4.0 mM
MBC [1]: 14 ± 4.0 mM
effect on the efficacy of the polycide ([2]; adding as little as 16 micrograms per ml of the metal): quadruple
eradication of the biofilm cultures with extended exposure times [3]: complete eradication
Fold Tolerance (MBEC:MBC100) ([4]; exposure time 8 to 10 h): 2.0
Fold Tolerance (MBEC:MBC100) ([4]; exposure time 4 h): 2.0
Fold Tolerance (MBEC:MBC100) ([4]; exposure time 6 h): 1.7
Fold Tolerance (MBEC:MBC100) ([4]; exposure time 27 h): 1.1
MBEC ([4]; exposure time 8 to 10 h): 32 ± 0 mM
MBEC ([4]; exposure time 2 h): ≧258 mM
MBEC ([4]; exposure time 4 h): 64 ± 45 mM
MBEC ([4]; exposure time 6 h): 36 ± 20 mM
MBEC ([4]; exposure time 27 h): 21 ± 11 mM
MIC [4]: 3.8 ± 1.9 mM
MBC100 ([4]; exposure time 8 to 10 h): 16 ± 0 mM
MBC100 ([4]; exposure time 2 h): 20 ± 8 mM
MBC100 ([4]; exposure time 4 h): 32 ± 0 mM
MBC100 ([4]; exposure time 6 h): 21 ± 14 mM
MBC100 ([4]; exposure time 27 h): 19 ± 11 mM
MIC [5]: 4.5 ± 1.4 mM
MBEC [5]: 13 ± 4 mM
MBC [5]: 15 ± 3 mM
MBC [6, 12]: 1024 µg/mL
MBEC [6, 12]: 1024 µg/mL
MIC [6, 12]: 512 to 1024 µg/mL
Fold Tolerance (MBEC:MBC100) ([7]; exposure time 2 h): 4.5
Fold Tolerance (MBEC:MBC100) ([7]; exposure time 27 h): 1.0
MBEC ([7]; exposure time 2 h): 72 ± 40 mM
MBEC ([7]; exposure time 27 h): 16 ± 0 mM
MBC100 ([7]; exposure time 2 h): 16 ± 0 mM
MBC100 ([7]; exposure time 27 h): 16 ± 0 mM
MIC [7]: 12 ± 5 mM
MIC [8]: 2.0 ± 0 mM
MBEC [8]: 2.0 ± 0 mM
MBC [8]: 2.0 ± 0 mM

lead nitrate [Pb^2+]
eradication of the biofilm cultures with extended exposure times [3]: complete eradication
Fold Tolerance (MBEC:MBC100) ([4]; exposure time 2 to 4 h): 4.0
Fold Tolerance (MBEC:MBC100) ([4]; exposure time 6 h): 3.0
Fold Tolerance (MBEC:MBC100) ([4]; exposure time 8 h): 4.9
Fold Tolerance (MBEC:MBC100) ([4]; exposure time 10 h): 3.0
Fold Tolerance (MBEC:MBC100) ([4]; exposure time 27 h): 1.6
MBEC ([4]; exposure time 2 to 4 h): ≧79 mM
MBEC ([4]; exposure time 6 h): ≧79 mM
MBEC ([4]; exposure time 8 h): 59 ± 23 mM
MBEC ([4]; exposure time 10 h): 59 ± 23 mM
MBEC ([4]; exposure time 27 h): 26 ± 15 mM
MIC [4]: 1.2 ± 0 mM
MBC100 ([4]; exposure time 2 to 4 h): 20 ± 0 mM
MBC100 ([4]; exposure time 6 h): 30 ± 11 mM
MBC100 ([4]; exposure time 8 h): 12 ± 5 mM
MBC100 ([4]; exposure time 10 h): 20 ± 0 mM
MBC100 ([4]; exposure time 27 h): 16 ± 6 mM
Fold Tolerance (MBEC:MBC100) ([7]; exposure time 27 h): 0.7
MBEC ([7]; exposure time 2 h): >40 mM
MBEC ([7]; exposure time 27 h): 59 ± 23 mM
MBC100 ([7]; exposure time 2 h): >40 mM
MIC [7]: 12 ± 5 mM

[Cl-].[Cl-].[Co+2] [Co^2+, cobalt (II) chloride]
eradication of the biofilm cultures with extended exposure times [3]: complete eradication
Fold Tolerance (MBEC:MBC100) ([4]; exposure time 2 to 6 h): 2.0
Fold Tolerance (MBEC:MBC100) ([4]; exposure time 2 h): at least 2
Fold Tolerance (MBEC:MBC100) ([4]; exposure time 8 h): 1.3
Fold Tolerance (MBEC:MBC100) ([4]; exposure time 10 h): 1.2
Fold Tolerance (MBEC:MBC100) ([4]; exposure time 27 h): 1.0
MBEC ([4]; exposure time 2 to 6 h): ≧278 mM
MBEC ([4]; exposure time 8 h): 139 ± 0 mM
MBEC ([4]; exposure time 10 h): 209 ± 80 mM
MBEC ([4]; exposure time 27 h): 116 ± 36 mM
MIC [4]: 2.0 ± 0.8 mM
MBC100 ([4]; exposure time 2 to 6 h): 139 ± 0 mM
MBC100 ([4]; exposure time 8 h): 104 ± 40 mM
MBC100 ([4]; exposure time 10 h): 174 ± 70 mM
MBC100 ([4]; exposure time 27 h): 114 ± 44 mM
Fold Tolerance (MBEC:MBC100) ([7]; exposure time 2 h): 2.7
Fold Tolerance (MBEC:MBC100) ([7]; exposure time 27 h): 2.0
MBEC ([7]; exposure time 2 h): ≧280 mM
MBEC ([7]; exposure time 27 h): ≧280 mM
MBC100 ([7]; exposure time 2 h): 104 ± 40 mM
MBC100 ([7]; exposure time 27 h): 140 ± 0 mM
MIC [7]: 7.6 ± 2.2 mM

NC[C@H]1O[C@H](O[C@H]2[C@H](O)[C@@H](O[C@H]3O[C@H](CO)[C@@H](O)[C@H](N)[C@H]3O)[C@H](N)C[C@@H]2N)[C@H](N)C[C@@H]1O [Tobramycin]
MBEC ([10]; P. aeruginosa ATCC 27853 biofilm): 112 ± 32 µg/mL
MIC ([10]; Pseudomonas aeruginosa, ATCC27853, P. aeruginosa ATCC 27853, read-out: MIC): 14 ± 4 µg/mL (≈ 29.9 µM)
MBC ([10]; Pseudomonas aeruginosa, ATCC27853, P. aeruginosa ATCC 27853 planktonic, read-out: MBC): 28 ± 8 µg/mL (≈ 59.9 µM)
MBEC ([11]; E. coli JM109 biofilm): 16 ± 0 µg/mL
MIC ([11]; Escherichia coli, E. coli JM109, read-out: MIC): 4 µg/mL (≈ 8.56 µM)
MBC ([11]; Escherichia coli, E. coli JM109 planktonic, read-out: MBC): 8 µg/mL (≈ 17.1 µM)
log10 reduction in viable cell counts of biofilms [9]: less than 0.5 log10

Source: US20080118573A1, “Use of Heavy Metals in the Treatment of Biofilms” (priority 2004, published 2008)
